Measurements reported in publication PMC8191813 (Antiviral research, 2017).
Read-outs that look alike come from different tables or passages of the source.

Experiments:
CCHFV/ZsG [1] = assay: microbe, parasite or virus in culture; assay type: cell-based, Crimean-Congo hemorrhagic fever virus
CCHFV/ZsG [2] = assay: microbe, parasite or virus in culture; assay type: cell-based, Crimean-Congo hemorrhagic fever virus; details: Orthonairovirus haemorrhagiae, SW13, read-out: EC50 CCHFV/ZsG
wild-type CCHFV = assay: microbe, parasite or virus in culture; assay type: cell-based, Crimean-Congo hemorrhagic fever virus; details: for EC50: Orthonairovirus haemorrhagiae, Huh-7, read-out: EC50 CCHFV
CCHFV = details: read-out: previously reported EC50; cited from earlier work
in vitro = details: human
CCHF = details: in vivo; cited from earlier work
rats = details: rat, in vivo; cited from earlier work
woodchucks = details: in vivo; cited from earlier work
[3] = Orthonairovirus haemorrhagiae, Huh-7, read-out: EC50 CCHFV/ZsG

| Structure (SMILES) | selectivity index (SI) CCHFV/ZsG (CCHFV/ZsG [1]) | EC50 (CCHFV/ZsG [1]; [3]) | EC50 (CCHFV/ZsG [1]; read-out: EC50 CCHFV/ZsG) | EC50 (CCHFV/ZsG [2]) | selectivity index (SI) CCHFV (wild-type CCHFV) | virus detection at the highest concentration of compound tested (wild-type CCHFV) | EC50 (wild-type CCHFV) | EC50 (CCHFV) | CC50 (in vitro) | ZsG fluorescence in initial screen (CCHFV/ZsG [1]) | CCHFV titer reduction compared to DMSO only-treated control (wild-type CCHFV) | efficacy in mouse model of CCHF (CCHF) | viability (in vitro) | potency relative to T-705 (CCHFV/ZsG [1]) | potency relative to ribavirin (CCHFV/ZsG [1]) | cytotoxicity, result in words (Huh7 cells) | cytotoxicity, result in words (SW13 cells) | adverse clinical effects (rats) | adverse clinical effects (woodchucks) |
| --- | --- | --- | --- | --- | --- | --- | --- | --- | --- | --- | --- | --- | --- | --- | --- | --- | --- | --- | --- |
| NC(=O)c1ncn([C@@H]2O[C@H](CO)[C@@H](O)[C@H]2O)n1 [Ribavirin, ribavirin] | 12.48 ± 2.61 (> 10) | 12.5 ± 2.6 µM | 12.5 µM | 5.69 ± 0.71 µM | 5.69 (> 26) | no virus detected | 5.69 µM | 11.5 µM | > 150 µM | – | – | – | – | – | – | – | – | – | – |
| NC(=O)c1nc(F)c[nH]c1=O [T-705, favipiravir] | 1.03 ± 0.16 (> 50) | 1.03 µM | – | – | 0.88 (> 57) | no virus detected | 0.88 µM | 7 µM | > 50 µM | < 30 % of control | approximately 2 logs | higher efficacy than ribavirin | > 80% | – | – | – | – | – | – |
| COc1c(C)c2c(c(O)c1C/C=C(\C)CCC(=O)OCCN1CCOCC1)C(=O)OC2 [MMF, mycophenolate mofetil] | – | 0.39 ± 0.13 µM | – | – | – | – | – | – | – | < 30 % of control | – | – | > 80% | – | – | – | – | – | – |
| COc1c(C)c2c(c(O)c1C/C=C(\C)CCC(=O)O)C(=O)OC2 [Mycophenolic acid, mycophenolic acid] | 0.10 ± 0.01 (18) | 0.1 µM | – | – | 0.19 (9) | – | 0.19 µM | – | 1.78 ± 0.25 µM | – | – | – | – | – | – | – | – | – | – |
| Nc1ccn([C@@H]2O[C@H](CO)[C@@H](O)[C@H]2F)c(=O)n1 [2′-dFC, 2′-deoxy-2′-fluorocytidine] | 0.061 ± 0.018 (> 820) | 0.061 µM | – | – | 0.031 (> 1613) | no virus detected | 0.031 µM | – | > 50 µM | < 30 % of control | approximately 2 logs | – | > 80% | 17 × | 200 × | no cytotoxicity | no associated cytotoxicity | no adverse clinical effects | no adverse clinical effects |
